Assay results published in article PMC12040169 (PLOS Biology, 2025).

Test: in vitro
Details: human, hela cells, % viability
In the case of `O=C(Nc1cccc(C(F)(F)F)c1)N1CCC(n2c(=O)[nH]c3ccccc32)CC1` [CBK149845], the viability at 28.5 h, 10 µM is reported as 84.6%. `O=C(Nc1cccc2ccccc12)N1CCC(n2c(=O)[nH]c3ccccc32)CC1` [CBK149858] gave a viability at 28.5 h, 10 µM of 85%. For `O=C(Oc1ccccc1)N1CCC(n2c(=O)[nH]c3ccccc32)CC1` [CBK149865], the viability at 28.5 h, 10 µM was 89%. Work on `O=C(Nc1sc2c(c1C(=O)O)CCC2)c1ccco1` [CBK152436] yielded a viability at 28.5 h, 10 µM of 101%. In the case of `O=C(Nc1ccsc1C(=O)O)c1ccccc1Cl` [CBK152440], the viability at 28.5 h, 10 µM is reported as 98.4%. Work on `CNC(=O)C1CCN(Cc2ccc(-c3nnn(CC(=O)NCc4ccc(C)cc4)n3)cc2)CC1` [CBK153195T] yielded a viability at 28.5 h, 10 µM of 96.1%. Compound `O=C(NCc1cccnc1)c1ccc(N2CCN(C(=O)c3ccccc3C(F)(F)F)CC2)nn1` [CBK153215] has a viability at 28.5 h, 10 µM of 72.3%. In the case of `O=C(NCCN1CCCC1)c1ccc(N2CCN(C(=O)c3ccccc3C(F)(F)F)CC2)nn1` [CBK153217], the viability at 28.5 h, 10 µM is reported as 105%. With `O=C(NCc1cccs1)c1ccc(N2CCN(C(=O)c3ccccc3C(F)(F)F)CC2)nn1` [CBK153218] the viability at 28.5 h, 10 µM was 87.6%. With `CC(C)CCNC(=O)c1ccc(N2CCN(C(=O)c3ccccc3C(F)(F)F)CC2)nn1` [CBK153222] the viability at 28.5 h, 10 µM was 114%. Compound `O=C(c1cscn1)N1CCC2(CCCNC2)C1` (stereo not shown) [CBK153230C] has a viability at 28.5 h, 10 µM of 97%. Work on `Cc1cn(CC(=O)N2CCC3(CCCNC3)C2)c(=O)[nH]c1=O` (stereo not shown) [CBK153231C] yielded a viability at 28.5 h, 10 µM of 95.9%. Compound `O=C(c1ccco1)N1CCC2(CCCNC2)C1` (stereo not shown) [CBK153233C] has a viability at 28.5 h, 10 µM of 93.8%. With `O=C(CC1CC1)Nc1snnc1-c1ccc(Cl)cc1` [CBK153239] the viability at 28.5 h, 10 µM was 97%. Work on `O=C(Nc1snnc1-c1ccc(Cl)cc1)c1ccco1` [CBK153242] yielded a viability at 28.5 h, 10 µM of 102%. Compound `O=C(Cc1ccsc1)Nc1snnc1-c1ccc(Cl)cc1` [CBK153243] has a viability at 28.5 h, 10 µM of 94.5%. With `O=C(Nc1snnc1-c1ccc(Cl)cc1)c1cccc(C(F)(F)F)c1` [CBK153246] the viability at 28.5 h, 10 µM was 72.5%. In the case of `CCc1c(C)nc2ccccc2c1SCC(=O)O` [CBK153279], the viability at 28.5 h, 10 µM is reported as 83.9%. `Cc1cc(CNC(=O)C2=CC(=O)CC(C)(C)O2)no1` [CBK153281] gave a viability at 28.5 h, 10 µM of 104%. `Cc1cc(Cl)ccc1CNC(=O)C1=CC(=O)CC(C)(C)O1` [CBK153282] showed a viability at 28.5 h, 10 µM of 97.5%. `CC1(C)CC(=O)C=C(C(=O)NCc2ccc3c(c2)OCO3)O1` [CBK153290] gave a viability at 28.5 h, 10 µM of 98.3%. `CN(C)CC(C)(C)CNC(=O)C1=CC(=O)CC(C)(C)O1` [CBK153291] gave a viability at 28.5 h, 10 µM of 103%. Work on `CC1(C)CC(=O)C=C(C(=O)NCc2cccs2)O1` [CBK153292] yielded a viability at 28.5 h, 10 µM of 97.5%. Compound `O=C(NCCN1CCCC1)c1ccc2nc[nH]c2c1` [CBK153311] has a viability at 28.5 h, 10 µM of 86%. For `Cc1cnc(CNC(=O)c2ccc3nc[nH]c3c2)cn1` [CBK153318], the viability at 28.5 h, 10 µM was 88.4%. `O=C(NCCc1ccc(O)cc1)c1ccc2nc[nH]c2c1` [CBK153323] showed a viability at 28.5 h, 10 µM of 106%. `N#Cc1ccc(CNC(=O)c2ccc3nc[nH]c3c2)cc1` [CBK153332] showed a viability at 28.5 h, 10 µM of 95.1%. `CCOC(=O)CCSc1c(CC)c(C)nc2ccccc12` [CBK153457T] gave a viability at 28.5 h, 10 µM of 93.5%. Work on `O=S(=O)(Nc1ccc2[nH]ccc2c1)c1ccc(Br)cc1F` [CBK153510] yielded a viability at 28.5 h, 10 µM of 88.9%. `O=S(=O)(Cc1ccc(Cl)cc1)Nc1cccc2[nH]ccc12` [CBK153531] gave a viability at 28.5 h, 10 µM of 99.5%. For `O=S(=O)(Nc1cccc2[nH]ccc12)c1ccc(F)cc1F` [CBK153546], the viability at 28.5 h, 10 µM was 62.2%. `O=S(=O)(Nc1cccc2[nH]ccc12)c1ccc(Br)cc1F` [CBK153547] showed a viability at 28.5 h, 10 µM of 80.6%. With `N#CCCCN1CCC(Oc2nccnc2OCc2cccc(Br)c2)CC1` [CBK153631] the viability at 28.5 h, 10 µM was 99.1%. With `N#CCCCN1CCC(Oc2nccnc2OCc2cc(Cl)cc(Cl)c2)CC1` [CBK153634] the viability at 28.5 h, 10 µM was 93.9%. With `N#CCCCN1CCC(Oc2nccnc2OCc2cccc(Cl)c2)CC1` [CBK153642] the viability at 28.5 h, 10 µM was 90.6%. `N#CCCCN1CCC(Oc2nccnc2OCc2ccc(F)cc2)CC1` [CBK153643] showed a viability at 28.5 h, 10 µM of 115%. With `N#CCCCN1CCC(Oc2nccnc2OCc2ccc(Br)cc2F)CC1` [CBK153647] the viability at 28.5 h, 10 µM was 94.7%. Work on `Cc1cccc(C)c1N(C1CCNCC1)S(=O)(=O)c1ccc2c(c1)CCO2` [CBK153668T] yielded a viability at 28.5 h, 10 µM of 99.1%. Compound `Cc1ccc(-c2oncc2C(=O)NCc2cccs2)cc1` [CBK153679] has a viability at 28.5 h, 10 µM of 95.7%. Work on `CCN(CC)C(=O)c1cnoc1-c1ccc(Br)cc1` [CBK153725] yielded a viability at 28.5 h, 10 µM of 94.4%. In the case of `COc1ccc(CCNC(=O)c2cnoc2-c2ccc(C)cc2)cc1` [CBK153731], the viability at 28.5 h, 10 µM is reported as 119%. With `CS(=O)(=O)c1ccc(Cn2ccnc(N3CCN(C(=O)C4CCCCC4)CC3)c2=O)cc1` [CBK153771] the viability at 28.5 h, 10 µM was 90.3%. `O=c1cc(CN2CCC(Oc3nccnc3OCc3ccc(Cl)c(Cl)c3)CC2)[nH]c(=O)[nH]1` [CBK153784] showed a viability at 28.5 h, 10 µM of 96.6%. Compound `CC(C)NC(=O)CN1CCC(Oc2nccnc2OCc2ccc(Cl)c(Cl)c2)CC1` [CBK153791] has a viability at 28.5 h, 10 µM of 92.2%. In the case of `O=C(c1cnoc1-c1ccc([N+](=O)[O-])cc1)N1CCCC1` [CBK153846], the viability at 28.5 h, 10 µM is reported as 107%. For `CCc1ccc(CNC(=O)Cn2nnnc2-c2ccc(CN3CCC(C)CC3)cn2)cc1` [CBK153930C], the viability at 28.5 h, 10 µM was 85.6%.
